Reference: PubChem BioAssay (NCI)
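Results reflect a 48-hour exposure of cells in 96-well plates to compound at five concentrations. GI50 = concentration required for 50% inhibition of growth. At the TGI there is no net growth.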

How the values were obtained:
Assay in all cases: NCI tumour cell line growth inhibition, 48 h
HCT-116 colon = system: HCT-116 colon
RXF 393 renal = system: RXF 393 renal
HT29 colon = system: HT29 colon
SF-295 CNS = system: SF-295 CNS
HOP-92 NSCLC = system: HOP-92 NSCLC
NCI/ADR-RES ovarian = system: NCI/ADR-RES ovarian
SK-MEL-5 melanoma = system: SK-MEL-5 melanoma
KM12 colon = system: KM12 colon
OVCAR-5 ovarian = system: OVCAR-5 ovarian
MDA-MB-435 = system: MDA-MB-435

## CC/C=C\C/C=C\C[C@H](O)C/C=C1/C(=O)C=C[C@@H]1C/C=C\CCCC(=O)OC
HCT-116 colon
  GI50: 0.841 µM
  TGI: 2.29 µM
RXF 393 renal
  GI50: 1.97 µM
  TGI: 3.61 µM
HT29 colon
  GI50: 1.48 µM
  TGI: 3.21 µM
SF-295 CNS
  GI50: 2.3 µM
  TGI: 5.56 µM
HOP-92 NSCLC
  GI50: 2.62 µM
  TGI: 6.02 µM
NCI/ADR-RES ovarian
  GI50: 1.78 µM
  TGI: 7.41 µM
SK-MEL-5 melanoma
  GI50: 1.54 µM
  TGI: 2.93 µM
KM12 colon
  GI50: 1.8 µM
  TGI: 5.02 µM
OVCAR-5 ovarian
  GI50: 2.75 µM
  TGI: 6.94 µM
MDA-MB-435
  GI50: 1.21 µM
  TGI: 6.26 µM

## Cc1cc(C(O)CN(C)C)cc2c1ccc1cc(C(C)C)ccc12 (stereo not given)
HCT-116 colon
  GI50: 1.8 µM
  TGI: 3.29 µM
RXF 393 renal
  GI50: 1.78 µM
  TGI: 3.36 µM
HT29 colon
  GI50: 1.56 µM
  TGI: 3.62 µM
SF-295 CNS
  GI50: 1.85 µM
  TGI: 3.54 µM
HOP-92 NSCLC
  GI50: 1.83 µM
  TGI: 6.45 µM
NCI/ADR-RES ovarian
  GI50: 2.07 µM
  TGI: 5.47 µM
SK-MEL-5 melanoma
  GI50: 1.76 µM
  TGI: 3.16 µM
KM12 colon
  GI50: 1.82 µM
  TGI: 3.32 µM
OVCAR-5 ovarian
  GI50: 2.02 µM
  TGI: 4.36 µM
MDA-MB-435
  GI50: 1.79 µM
  TGI: 3.64 µM

## Cc1nc(N)nc2ccccc12
HCT-116 colon
  TGI: > 100 µM
RXF 393 renal
  TGI: > 100 µM
HT29 colon
  TGI: > 100 µM
SF-295 CNS
  TGI: > 100 µM
HOP-92 NSCLC
  TGI: > 100 µM
NCI/ADR-RES ovarian
  TGI: > 100 µM
SK-MEL-5 melanoma
  TGI: > 100 µM
KM12 colon
  TGI: > 100 µM
OVCAR-5 ovarian
  TGI: > 100 µM
MDA-MB-435
  TGI: > 100 µM

## N=C1C=C(N)C(=O)c2[nH]c(=O)ccc21
HCT-116 colon
  TGI: 2.48 µM
RXF 393 renal
  TGI: 3.29 µM
HT29 colon
  TGI: 4.5 µM
SF-295 CNS
  TGI: 31.2 µM
HOP-92 NSCLC
  TGI: 3.58 µM
NCI/ADR-RES ovarian
  TGI: 4.86 µM
SK-MEL-5 melanoma
  TGI: 3.22 µM
KM12 colon
  TGI: 3.21 µM
OVCAR-5 ovarian
  TGI: 4.78 µM
MDA-MB-435
  TGI: 2.3 µM

## CC(NC(=O)c1ccccc1)(C(=O)O)C(=O)O
HCT-116 colon
  TGI: > 100 µM
RXF 393 renal
  TGI: > 100 µM
HT29 colon
  TGI: > 100 µM
SF-295 CNS
  TGI: > 100 µM
HOP-92 NSCLC
  TGI: > 100 µM
NCI/ADR-RES ovarian
  TGI: > 100 µM
SK-MEL-5 melanoma
  TGI: > 100 µM
KM12 colon
  TGI: > 100 µM
OVCAR-5 ovarian
  TGI: > 100 µM
MDA-MB-435
  TGI: > 100 µM
